Assay [1] deals with T1, endogenous cathepsin K in the nucleus of human osteoclast (Homo sapiens, UniProt P43235).
T1 construct: endogenous in cells; host or cells: primary human osteoclasts differentiated from blood monocytes with M-CSF and RANKL
T1 sequence (P43235 115-329): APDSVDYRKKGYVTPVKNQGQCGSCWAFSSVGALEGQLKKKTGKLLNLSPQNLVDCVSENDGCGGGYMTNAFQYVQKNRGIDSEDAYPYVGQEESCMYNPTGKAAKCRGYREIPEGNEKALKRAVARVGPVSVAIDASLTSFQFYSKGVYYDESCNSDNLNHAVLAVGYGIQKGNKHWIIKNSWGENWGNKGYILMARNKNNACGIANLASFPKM
Nature of the assay: Fluorescence microscopy of nuclear CTSK inhibition (GD32 probe). Format: cell-based. Conditions: 3 μM, 2 h, then GD32 8 h. The source says:
We have generated inhibitors that block nuclear CTSK activity for the first time. […] CTSK activity labeled by a specific fluorescence ABP, GD32, was detected in the nucleus and nucleoli of osteoclasts, as reported by Dey et al.[19] The CTSK nuclear signal was completely eliminated in the presence of the inhibitors (Figure 9). These inhibitors can facilitate studying CTSK nuclear activity.
Figure 9 Detection of inhibition of endogenous cathepsin K in the nucleus of human osteoclast by fluorescence microscopy. (a) Osteoclast cells were treated with GD20 or GD38 inhibitors [3 μM] or DMSO vehicle in culture medium for 2 h, followed by incubation with GD32 for 8 h, as shown in Figure 8a. Cells were then fixed and stained with DAPI (nucleus), and Z stack images were captured by confocal microscopy. The white arrows indicate the nucleus. […] Red fluorescence is CTSK activity labeled by the ABP (GD32) and blue fluorescence (DAPI). (b) Microscopy image analysis software Imaris 10.0.1 was used to produce a three-dimensional (3D) surface rendering image of a cell nucleus (transparent blue) and CTSK inside it (opaque red) on top of the original image (blue, DAPI; red, GD32). The thresholds for the surfaces were chosen to emphasize CTSK inside the nucleus. One nucleus for each treatment was chosen from pictures in (a). […]

For the next assay, the system named is human osteoclasts. Nature of the assay: Bone resorption assay, pit formation on bone slices (toluidine blue). Conditions: Osteoclast, compared to vehicle-treated OC. In kind it is cell-based. As for the experimental part:
The selective blockage of cellular CTSK activity allowed us to assess the effect of the inhibitors on bone resorption induced by osteoclasts (OCs) as an important step toward therapeutic application in osteoporosis, bone metastases, and other diseases associated with excessive bone resorption. Human OCs were derived from CD14+ monocytes that were extracted from healthy donors’ blood and treated with M-CSF and RANKL, as described in Abdallah et al.[46] The OC were grown on cortical bone slices over 14 days in the presence of the CTSK inhibitors to evaluate the impact of inhibitors on bone resorption; see scheme (Figure 6a).
Figure 6 CTSK inhibition in human osteoclasts. (a) Scheme of the process of maturation of osteoclasts (OCs) derived from human monocytes in the presence of RANKL and M-CSF. […] (c) Quantitative analysis of pit formation in bone slices after incubation with OC treated with GD20 or ODN (1, 5 μM) relative to vehicle treated slices. […] (e) Quantification of osteoclasts number on bone slices after inhibitor treatment, detected by TRAP staining. […] The activity of CTSK in the cells was detected by 2 h labeling with a pan-cathepsin activity-based probe, GB123, followed by a fluorescence scan of the SDS-PAGE detecting CTSK attached to the probe; the red arrow points to the bands of CTSK (above 25 kDa). […]

Turning to `CC(C)C[C@H](N[C@@H](c1ccc(-c2ccc(S(C)(=O)=O)cc2)cc1)C(F)(F)F)C(=O)NCC(=O)COC(=O)[C@@H]1CCCN1C(=O)[C@H](CC(C)C)NC(=O)OCC1c2ccccc2-c2ccccc21` [GD20], the “nuclear CTSK activity labeled by GD32” value in assay [1] is given as “block CTSK activity in the nucleolus”. Besides, testing at 5 µM in the assay with human osteoclasts gave an inhibition of 94 ± 1.57%.
Regarding `CC(C)C[C@H](N[C@@H](c1ccc(-c2ccc(S(C)(=O)=O)cc2)cc1)C(F)(F)F)C(=O)NCC(=O)COC(=O)[C@@H]1CCCN1C(=O)[C@H](CCC(N)=O)NC(=O)OCC1c2ccccc2-c2ccccc21` [GD38], the “nuclear CTSK activity labeled by GD32” value in assay [1] was “block CTSK activity in the nucleolus”.
Consider `CC(C)(F)C[C@H](N[C@@H](c1ccc(-c2ccc(S(C)(=O)=O)cc2)cc1)C(F)(F)F)C(=O)NC1(C#N)CC1` [ODN, odanacatib, reference compound], for which at 5 µM the inhibition with human osteoclasts was 93 ± 1.45%.
